# According to PubChem BioAssay (NCI):
#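 Following 48 hours of exposure in 96-well plates, responses at five concentrations were used to interpolate endpoints linearly. The concentration for 50% growth inhibition is given as GI50. TGI denotes the concentration required for complete inhibition of growth.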
# How the values were obtained:
# Test in all cases: NCI tumour cell line growth inhibition, 48 h
# 786-0 renal = system: 786-0 renal
# A498 renal = system: A498 renal
# A549 NSCLC = system: A549 NSCLC
# ACHN renal = system: ACHN renal
# BT-549 breast = system: BT-549 breast
# CAKI-1 renal = system: CAKI-1 renal
# CCRF-CEM leukemia = system: CCRF-CEM leukemia
# COLO 205 colon = system: COLO 205 colon
# DU-145 prostate = system: DU-145 prostate
# EKVX NSCLC = system: EKVX NSCLC
# HCC-2998 colon = system: HCC-2998 colon
# HCT-116 colon = system: HCT-116 colon
# HCT-15 colon = system: HCT-15 colon
# HL-60(TB) leukemia = system: HL-60(TB) leukemia
# HOP-62 NSCLC = system: HOP-62 NSCLC
# HOP-92 NSCLC = system: HOP-92 NSCLC
# HS 578T breast = system: HS 578T breast
# HT29 colon = system: HT29 colon
# IGROV1 ovarian = system: IGROV1 ovarian
# K-562 leukemia = system: K-562 leukemia
# KM12 colon = system: KM12 colon
# LOX IMVI melanoma = system: LOX IMVI melanoma
# M14 melanoma = system: M14 melanoma
# MALME-3M melanoma = system: MALME-3M melanoma
# MCF7 breast = system: MCF7 breast
# MDA-MB-231 breast = system: MDA-MB-231 breast
# MDA-MB-435 = system: MDA-MB-435
# MOLT-4 leukemia = system: MOLT-4 leukemia
# NCI-H226 lung = system: NCI-H226 lung
# NCI-H23 lung = system: NCI-H23 lung
# NCI-H460 lung = system: NCI-H460 lung
# NCI-H522 lung = system: NCI-H522 lung
# NCI/ADR-RES ovarian = system: NCI/ADR-RES ovarian
# OVCAR-3 ovarian = system: OVCAR-3 ovarian
# OVCAR-4 ovarian = system: OVCAR-4 ovarian
# OVCAR-5 ovarian = system: OVCAR-5 ovarian
# OVCAR-8 ovarian = system: OVCAR-8 ovarian
# PC-3 prostate = system: PC-3 prostate
# RPMI-8226 leukemia = system: RPMI-8226 leukemia
# RXF 393 renal = system: RXF 393 renal
# SF-268 CNS = system: SF-268 CNS
# SF-295 CNS = system: SF-295 CNS
# SF-539 CNS = system: SF-539 CNS
# SK-MEL-2 melanoma = system: SK-MEL-2 melanoma
# SK-MEL-28 melanoma = system: SK-MEL-28 melanoma
# SK-MEL-5 melanoma = system: SK-MEL-5 melanoma
# SK-OV-3 ovarian = system: SK-OV-3 ovarian
# SN12C renal = system: SN12C renal
# SNB-19 CNS = system: SNB-19 CNS
# SR leukemia = system: SR leukemia
# SW-620 colon = system: SW-620 colon
# T-47D breast = system: T-47D breast
# TK-10 renal = system: TK-10 renal
# U251 CNS = system: U251 CNS
# UACC-257 melanoma = system: UACC-257 melanoma
# UACC-62 melanoma = system: UACC-62 melanoma
# UO-31 renal = system: UO-31 renal
structure (smiles),measurement,setting,value
Cc1c2ncccc2nc2[nH]c3ccc(OCCN(C)C)cc3c12,GI50,786-0 renal,2810 nM
same,TGI,786-0 renal,16.1 µM
same,GI50,A498 renal,5.18 µM
same,TGI,A498 renal,20 µM
same,GI50,A549 NSCLC,1870 nM
same,TGI,A549 NSCLC,10.3 µM
same,GI50,ACHN renal,750 nM
same,TGI,ACHN renal,7.95 µM
same,GI50,BT-549 breast,7.46 µM
same,TGI,BT-549 breast,29.7 µM
same,GI50,CAKI-1 renal,3.61 µM
same,TGI,CAKI-1 renal,21.3 µM
same,GI50,CCRF-CEM leukemia,2100 nM
same,TGI,CCRF-CEM leukemia,20.9 µM
same,GI50,COLO 205 colon,1500 nM
same,TGI,COLO 205 colon,7.94 µM
same,GI50,DU-145 prostate,1900 nM
same,TGI,DU-145 prostate,11.6 µM
same,GI50,EKVX NSCLC,2900 nM
same,TGI,EKVX NSCLC,21.2 µM
same,GI50,HCC-2998 colon,1640 nM
same,TGI,HCC-2998 colon,14.6 µM
same,GI50,HCT-116 colon,552 nM
same,TGI,HCT-116 colon,12.3 µM
same,GI50,HCT-15 colon,1330 nM
same,TGI,HCT-15 colon,16.3 µM
same,GI50,HL-60(TB) leukemia,3.53 µM
same,TGI,HL-60(TB) leukemia,16.5 µM
same,GI50,HOP-62 NSCLC,1730 nM
same,TGI,HOP-62 NSCLC,13.7 µM
same,GI50,HOP-92 NSCLC,1990 nM
same,TGI,HOP-92 NSCLC,9.59 µM
same,GI50,HS 578T breast,3.77 µM
same,TGI,HS 578T breast,33.7 µM
same,GI50,HT29 colon,961 nM
same,TGI,HT29 colon,6.05 µM
same,GI50,IGROV1 ovarian,2130 nM
same,TGI,IGROV1 ovarian,16.5 µM
same,GI50,K-562 leukemia,802 nM
same,TGI,K-562 leukemia,14.6 µM
same,GI50,KM12 colon,1930 nM
same,TGI,KM12 colon,13.6 µM
same,GI50,LOX IMVI melanoma,1540 nM
same,TGI,LOX IMVI melanoma,5.78 µM
same,GI50,M14 melanoma,3.01 µM
same,TGI,M14 melanoma,15.6 µM
same,GI50,MALME-3M melanoma,2420 nM
same,TGI,MALME-3M melanoma,13.5 µM
same,GI50,MCF7 breast,305 nM
same,TGI,MCF7 breast,6.04 µM
same,GI50,MDA-MB-231 breast,2500 nM
same,TGI,MDA-MB-231 breast,16 µM
same,GI50,MDA-MB-435,3.12 µM
same,TGI,MDA-MB-435,15.7 µM
same,GI50,MOLT-4 leukemia,600 nM
same,TGI,MOLT-4 leukemia,12.5 µM
same,GI50,NCI-H226 lung,5.05 µM
same,TGI,NCI-H226 lung,21.5 µM
same,GI50,NCI-H23 lung,2540 nM
same,TGI,NCI-H23 lung,21 µM
same,GI50,NCI-H460 lung,1930 nM
same,TGI,NCI-H460 lung,11 µM
same,GI50,NCI-H522 lung,2410 nM
same,TGI,NCI-H522 lung,15.9 µM
same,GI50,NCI/ADR-RES ovarian,1100 nM
same,TGI,NCI/ADR-RES ovarian,17.4 µM
same,GI50,OVCAR-3 ovarian,3.62 µM
same,TGI,OVCAR-3 ovarian,19.7 µM
same,GI50,OVCAR-4 ovarian,1840 nM
same,TGI,OVCAR-4 ovarian,8.75 µM
same,GI50,OVCAR-5 ovarian,2810 nM
same,TGI,OVCAR-5 ovarian,19.2 µM
same,GI50,OVCAR-8 ovarian,1490 nM
same,TGI,OVCAR-8 ovarian,16.5 µM
same,GI50,PC-3 prostate,1860 nM
same,TGI,PC-3 prostate,10.9 µM
same,GI50,RPMI-8226 leukemia,2130 nM
same,TGI,RPMI-8226 leukemia,5.91 µM
same,GI50,RXF 393 renal,2890 nM
same,TGI,RXF 393 renal,9.92 µM
same,GI50,SF-268 CNS,2160 nM
same,TGI,SF-268 CNS,15.4 µM
same,GI50,SF-295 CNS,1590 nM
same,TGI,SF-295 CNS,13 µM
same,GI50,SF-539 CNS,2580 nM
same,TGI,SF-539 CNS,13.9 µM
same,GI50,SK-MEL-2 melanoma,3.03 µM
same,TGI,SK-MEL-2 melanoma,15.1 µM
same,GI50,SK-MEL-28 melanoma,4.4 µM
same,TGI,SK-MEL-28 melanoma,19.1 µM
same,GI50,SK-MEL-5 melanoma,9.77 µM
same,TGI,SK-MEL-5 melanoma,21.9 µM
same,GI50,SK-OV-3 ovarian,2300 nM
same,TGI,SK-OV-3 ovarian,17.5 µM
same,GI50,SN12C renal,2500 nM
same,TGI,SN12C renal,28.5 µM
same,GI50,SNB-19 CNS,2800 nM
same,TGI,SNB-19 CNS,26.7 µM
same,GI50,SR leukemia,734 nM
same,TGI,SR leukemia,7.95 µM
same,GI50,SW-620 colon,940 nM
same,TGI,SW-620 colon,13.7 µM
same,GI50,T-47D breast,2800 nM
same,TGI,T-47D breast,> 100 µM
same,GI50,TK-10 renal,2420 nM
same,TGI,TK-10 renal,9.55 µM
same,GI50,U251 CNS,2680 nM
same,TGI,U251 CNS,17.3 µM
same,GI50,UACC-257 melanoma,10.4 µM
same,TGI,UACC-257 melanoma,28.5 µM
same,GI50,UACC-62 melanoma,14.3 µM
same,TGI,UACC-62 melanoma,39.3 µM
same,GI50,UO-31 renal,1840 nM
same,TGI,UO-31 renal,11.5 µM
